Reference: patent US12161695B2 (priority 2018, dated 2024)
“Also recorded” adds a separate entry of the source. Read-outs that look alike come from different tables or passages of the source. Where no end group is shown, it is not given here.

Tests used:
[1] = system: iGABAARs in human pancreatic islet β cells; type: cell-based
Procedure: (§1) Human islets were generously provided by the Nordic Network for Clinical Islet Transplantation, supported by EXODIAB and the Juvenile Diabetes Research Foundation. All procedures were approved by the regional ethics committee in Uppsala and informed consent obtained by appropriate measures from donors or their relatives. […] The islets were then hand-picked and cultured free-floating in CMRL 1066 (ICN Biomedicals, Costa Mesa, CA, USA) supplemented with 10 mM HEPES, 2 mM L-glutamine, 50 jig/ml gentamicin, 0.25 jig/ml fungizone (GIBCO, BRL, Gaithersburg, MD, USA), 20 jig/ml ciprofloxacin (Bayer Healthcare, Leverkusen, Germany), and 10 mM nicotinamide at 37° C. in humidified atmosphere containing 5% CO2, vol/vol and used in the experiments from second day of incubation up to 10 days of culturing.
(§2) The whole-cell patch-clamp configuration was obtained on intact islets using the blind patch-clamp technique (Hamill et al., 1981; Jin et al., 2011; Neher and Sakmann, 1976) and single-channel currents were recorded at room temperature (20-22° C.) or at 34° C. The single intact islet was held by the holding pipette and approached by the recording pipette from the other side (see FIG. 1a). The holding and recording pipettes were made from borosilicate glass. During experiments, the pancreatic islets were perfused with the extracellular solution (mM): 137 NaCl, 5.6 KCl, 2.6 CaCl2, 1.2 MgCl2, 10 HEPES and 20 glucose (pH 7.4 using NaOH) at the rate of 3 mL/min. The intracellular solution consisted of (mM): 135 CsCl, 30 CsOH, 1 MgCl2, 10 EGTA, 5 HEPES and 3 Mg-ATP (pH 7.2 with HCl). Drugs were purchased from Sigma-Aldrich (Steinheim, Germany) or Ascent Scientific (Bristol, UK). Pentobarbital, propofol, GLP-1 and the GABAAR antagonist SR95531 were dissolved in the extracellular solution. Diazepam, zolpidem and the GABAAR antagonist picrotoxin stock solutions were made in dimethyl sulfoxide (DMSO) and then dissolved in the extracellular solution. […] Recordings were done using an Axopatch 200B amplifier, filtered at 2 kHz, digitized on-line at 10 kHz using an analog-to-digital converter and Clampex 10.5 (Molecular Devices, CA, USA) software. The access resistance was monitored and if it changed by more than 25%, the recording was rejected. The single-channel parameters (amplitude, frequency/opening rate, conductance, open probability Po, mean current Imean and mean open time To) were analyzed by Channel3 (Nicholas Laver, Derek Laver, the University of Newcastle, Australia) and Clampfit 10.5 (Molecular Devices, USA). We used a simplified version of a model, previously established by Jones and Westbrook (Jones and Westbrook, 1995) to describe the activation of GABAA receptors (see FIG. 2a model scheme). Simulations of opening rate and mean open time were generated from this theoretical model using the ‘Q-matrix’ method of Colquhoun and Hawkes (Colquhoun and Hawkes, 1981, 1982). We accounted for the effects of missed events due to filtering using the ‘effective rate constant’ method of Blatz and Magleby (Blatz and Magleby, 1986) incorporating an event dead-time of 0.1 ms.

iGABAARII = test: whole-cell patch-clamp single-channel currents in β cells of intact human islets, iGABAARII; type: cell-based
Procedure: as §1, §2

iGABAARI = test: whole-cell patch-clamp single-channel currents in β cells of intact human islets, iGABAARI; type: cell-based; settings: for GABA-activated single-channel conductance: 100 nM GABA; for reduction of Ka for GABA activation in T2D donors: T2D vs ND donors
Procedure: as §1, §2

[2] = cited from earlier work
[3] = system: insulin granule exocytosis in human islet cells; test: insulin granule exocytosis imaging by TIRF microscopy; type: cell-based
Procedure: The islets were dissociated into single cells in 0.0025% trypsin in cell dissociation buffer (Hank's based) for 3-5 minutes. Cells were washed once in serum-containing medium, plated onto 22-mm polylysine-coated coverslips and allowed to settle overnight. Adenovirus particles adNPY-Venus (Tsuboi et al., 2006) or adNPY-mCherry (Meur et al., 2010) was added and cells were imaged 24-36 hours later. Cells selected for experiments expressed the granule marker and appeared healthy. Cells were imaged in a standard solution containing (mM): 138 NaCl, 5.6 KCl, 1.2 MgCl2, 2.6 CaCl2, 20 D-glucose, 5 HEPES (pH 7.4 with NaOH) (Barg et al., 2002; Gandasi and Barg, 2014). For depolarization dependent exocytosis experiments, glucose was 10 mM and the solution supplemented with 2 μM forskolin and 200 μM diazoxide, a K^+-ATP-channel opener that prevents glucose-dependent depolarization. Exocytosis was then evoked with high K^+ solution (75 mM KCl equimolarly replacing NaCl). High K^+ was applied by computer-timed local pressure ejection through a glass pipette similar to those used for patch clamp. All experiments were carried out at ˜32° C. Cells were imaged using a custom-built lens-type total internal reflection (TIRF) microscope based on an Axiovert 135 microscope with a 100×/1.45 objective (Carl Zeiss). Excitation was from a DPSS laser at 491 (Cobolt, Stockholm, Sweden), controlled with an acousto-optical tunable filter (AA-Opto, France) and using dichroic Di01-R488/561 (Semrock) and emission filter FF01-523/610 (Semrock). Scaling was 160 nm per pixel and exposure time 100 ms per frame at 10 frames/s. Exocytosis events were found by eye. The moment of exocytosis was defined as the first significant change (2 standard deviations) from the pre-exocytosis baseline. This definition applied to both types of events, with or without preceding flash. The decay time was then defined as the time from exocytosis until the signal reached less than one third of the amplitude of the event. Traces were read out as DF, defined as average fluorescence in a 0.5 μm circle minus the average fluorescence in a surrounding annulus of 0.8 μm. The point of exocytosis was calculated by fitting the granule fluorescence during exocytosis with a discontinuous function (Eq 1), which assumes constant fluorescence before fusion, an inverted exponential decay just after fusion, and finally exponential decay during content release:
where t is time; c is average fluorescence in a 0.48 μm wide circle at the granule site; A1, A2 and A3 are the fluorescence values at the plateaus; τ1 and τ2 are the decay constants for the fluorescence increase after fusion and content release; and t1 and t2 are the times of fusion and release, respectively.

human islets = test: glucose-stimulated insulin secretion in human islets; type: cell-based
Procedure: The incubation medium was subsequently collected, the islets sonicated briefly (1-2 periods of 10 s) in acidic ethanol and frozen overnight. Samples from the medium and the islets were appropriately diluted and analyzed in duplicates for insulin using an immunoassay kit from Mesoscale Discovery (Rockville, MD, USA). Secretion was normalized to insulin content and expressed in relation to that at 20 mM glucose. In some experiments, the islets were placed in a closed 10-μL Teflon tubing perfusion. The chamber was perfused with buffer at a rate of 60 μL/min (AutoMate Scientific, Berkeley, CA). […] Three fractions were collected for each condition and analyzed for insulin. The results are presented as one data point per condition, which represents the average of the last two fractions at that condition. The first fraction was excluded since it was influenced by the preceding condition.

[4] = diazepam 1 μM, propofol 10 μM, pentobarbital 100 μM, zolpidem 200 nM
[5] = diazepam 1 μM, propofol 10 μM, pentobarbital 100 μM, zolpidem 100 or 200 nM
[6] = GLP-1 application and following washout, n=5
[7] = activated by interstitial GABA, room temperature
[8] = 20 mM glucose, with GABA, one T2D donor

## Br.COc1ccc(-c2ccc(=N)n(CCCC(=O)O)n2)cc1 [SR95531]
[1]
  inhibition of iGABAAR (GABA-activated) currents: inhibited

## CCCC(C)C1(CC)C(=O)NC(=O)NC1=O (stereo not shown) [pentobarbital, 5-ethyl-5-(1-methylbutyl)-barbiturate]
[1]; [4]
  effect on mean single-channel current (Imean): significantly increased
  effect on opening frequency of iGABAARs: significantly increased
[1]; [5]
  modulation of iGABAAR-mediated single-channel currents: enhanced

## GLP-1: metabolic, gastrointestinal peptide hormone secreted by L-cells in the gut; enhances insulin secretion (HAEGTFTSDVSSYLEGQAAKEFIAWLVKGR; ends and bridges not checked; UniProt P01275 98-127, looked up) [reference compound]
iGABAARII; [6]
  effect on single-channel conductance: did not significantly change
iGABAARI; GLP-1 50 pM, n=6
  effect on opening frequency of iGABAARI channels: significantly increased
iGABAARI; [6]
  effect on single-channel conductance: did not significantly change
iGABAARI; post GLP-1 vs before GLP-1 application
  opening frequency / current enhancement after GLP-1 washout: remained, albeit at a reduced level; also recorded: remained significantly higher
[1]; GABA signalling stays elevated in absence of GLP-1
  time β-cells remember the GLP-1 activation after GLP-1 is no longer in circulation: up to 30 minutes
[1]; GLP-1 50 pM in the presence of GABA 10 nM
  effect on iGABAAR-mediated single-channel currents: potentiated

## Cc1ccc(-c2nc3ccc(C)cn3c2CC(=O)N(C)C)cc1 [zolpidem]
[1]; [4]
  effect on mean single-channel current (Imean): not
  effect on opening frequency of iGABAARs: not
[1]; [5]
  modulation of iGABAAR-mediated single-channel currents: did not modulate and not

## NCCCC(=O)O [GABA, gamma-aminobutyric acid]
iGABAARII; ND donors, 34° C.
  GABA concentration at peak opening rate: 1 µM
iGABAARII; ND donors, 34° C. vs RT
  increase of Ka on raising the temperature to 34° C.: 23 fold
iGABAARII; ND donors, room temperature
  GABA concentration at peak opening rate: 0.1 µM
iGABAARII; T2D vs ND donors, 34° C.
  reduction of Ka for GABA activation in T2D donors: 300 fold
iGABAARII; [7]
  cord conductance: 76 pS
[2]; after administration in connection with ingestion of food
  time to maximum blood serum level of GABA: approximately 45 minutes
[2]; from the administration of GABA
  time after which blood serum levels of GABA markedly decrease: approximately 90 minutes
[3]; 20 mM glucose >10 min, GABA present, ND donors
  exocytosis: ~5 granules/min
[3]; 20 mM glucose >10 min, GABA present, two ND donors, n=6
  exocytosis events per area and time: 0.095±0.01 10^−3·tm^−2·s^−1
[3]; [8]
  exocytosis: ~1 granules/min
  exocytosis events per area and time: 0.019±0.008 10^−3·tm^−2·s^−1
[3]; 75 mM K+ depolarization, 100 nM GABA
  exocytosis for an average-sized cell: ~150 granules/min
[3]; 75 mM K+ depolarization, 100 nM GABA, n=7
  exocytosis events per area and time: 2.5±0.6 10^−3·tm^−2·s^−1
[3]; 75 mM K+ depolarization, presence of GABA
  loss of NPY-Venus from individual granules (decay constant): 0.86 ± 0.09 s
iGABAARI; islets from ND donors
  GABA-activated single-channel conductance: 41±3 pS
iGABAARI; islets from T2D donors
  GABA-activated single-channel conductance: 55±5 pS
iGABAARI; ND donors
  GABA concentration at maximal rate (frequency) of channel openings: 100 nM
iGABAARI; 34° C.
  reduction of Ka for GABA activation in T2D donors: ~3 fold
iGABAARI; RT
  reduction of Ka for GABA activation in T2D donors: 6 fold
iGABAARI; [7]
  cord conductance: 37 pS
[1]
  GABA concentration above which receptors are desensitized and stop working: exceeding 1000 nM
  optimal GABA concentrations for active iGABAARs: 100 nM to submicromolar
[1]; 100 nM GABA, Vp=−70 mV, 34° C.
  effect on mean current (Imean): significantly (P<0.05) enhanced
  effect on open probability (Po): significantly (P<0.05) enhanced
[1]; GABA applied 1 to 10^4 nM
  GABA concentration at which GABA-activated Cl− currents were evoked: > 10 nM
[1]; islets from ND and T2D donors
  effect on mean open times To: did not affect
  effect on rate (frequency) of channel openings: increased
[1]; kinetic model
  GABA concentration at which channels start to desensitize: about 1 μM
Human islets; 100 nM GABA, 10 ND donors
  insulin secretion normalized to the 20 mM glucose response: 1.6±0.2
Human islets; 100 nM GABA, 10 ND donors, average
  increase of insulin secretion: approximately 60%
Human islets; GABA, islets from three ND donors
  insulin secretion normalized to the 20 mM glucose response: 0.7±0.01

## CC(C)c1cccc(C(C)C)c1O [propofol]
[1]
  effect on mean single-channel current (Imean): significantly increased
  effect on opening frequency of iGABAARs: significantly increased
  modulation of iGABAAR-mediated single-channel currents: enhanced

## picrotoxin [reference compound]
[1]; antagonist 100 μM where stated
  inhibition of iGABAAR (GABA-activated) currents: inhibited
Human islets; picrotoxin added with GABA, ND donors
  effect on the GABA-induced change of insulin secretion: reversed

## CN1C(=O)CN=C(c2ccccc2)c2cc(Cl)ccc21 [diazepam]
[1]; [4]
  effect on mean single-channel current (Imean): significantly increased
  effect on opening frequency of iGABAARs: significantly increased
[1]; [5]
  modulation of iGABAAR-mediated single-channel currents: enhanced
